“Also recorded” adds a separate entry of the source. Like-named read-outs stand apart in the source and are kept apart here.
Key:
human NTCP [1] = target: T1, human NTCP (Homo sapiens, UniProt Q14973); assay: Sodium dependent tauro-ursodeoxycholic acid uptake into U2OS-HA-hNTCP cells; type: cell-based; set-up: HA; expressed in transfected cells
T1 sequence (Q14973 1-349): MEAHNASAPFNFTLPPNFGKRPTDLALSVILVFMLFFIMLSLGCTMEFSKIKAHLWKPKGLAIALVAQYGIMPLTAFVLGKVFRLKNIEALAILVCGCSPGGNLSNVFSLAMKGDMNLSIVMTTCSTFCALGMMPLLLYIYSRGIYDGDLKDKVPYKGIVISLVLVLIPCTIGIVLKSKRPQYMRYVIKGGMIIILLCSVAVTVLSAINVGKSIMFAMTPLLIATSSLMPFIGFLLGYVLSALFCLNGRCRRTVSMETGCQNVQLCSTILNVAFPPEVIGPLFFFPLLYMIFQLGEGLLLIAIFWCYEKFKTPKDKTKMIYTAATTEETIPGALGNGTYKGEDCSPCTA
Procedure: Figure 4 Myrcludex B inhibits uptake of tauro-ursodeoxycholic acid. Sodium dependent tauro-ursodeoxycholic acid uptake into U2OS-HA-hNTCP cells was reduced in the presence of Myrcludex B. N = 6 wells/condition, data are depicted as mean ± SD.
Buffers were set to pH 7.4, at room temperature. After washing, cells were pre-incubated for 10 minutes with drugs in 50 µL uptake buffer. […] After incubation, buffer was removed and cells were washed 2x with ice-cold PBS. Cells were lysed for a minimum of 30 minutes in 30 µL/well 0.05% SDS in water. When lysis was complete, 120 µL MicroScint™-20 (PerkinElmer) was added to the wells and radioactivity was measured by liquid scintillation counting.

[2] = system: HDV RNA and HBV DNA serum levels; conditions: chronic hepatitis delta patients, 24 weeks; cited from earlier work
HBV [3] = conditions: primary human hepatocytes, cited from earlier work
HBV [4] = assay: HBV infection of primary human hepatocytes (literature); type: cell-based, hepatitis B virus
human NTCP [5] = target: T1, human NTCP; assay: Myrcludex B-FITC binding by confocal microscopy in U2OS-HA-hNTCP cells; set-up: HA; expressed in transfected cells; conditions: for Myrcludex B-FITC fluorescence / binding to U2OS-HA-hNTCP cells (in words): co-administration with increasing amounts of drug; for ≥50% loss of Myrcludex B binding to hNTCP (concentration): confocal microscopy, 0.2 µM Myrcludex B-FITC, drug 1, 10, 100 µM, concentration at which binding inhibited minimally 50%
Procedure: After 24 hours, medium was aspirated and cells were washed once with 300 µl Leibovitz’s L-15 Medium (Invitrogen). A 30 minute incubation period followed in which all cells were incubated with 0.2 µM Myrcludex B-FITC with or without drug (1, 10, 100 µM) and Hoechst (1/1000) in 300 µL Leibovitz’s L-15 Medium. Cells were washed twice with Leibovitz’s L-15 Medium and subsequently 400 µL Leibovitz’s L-15 Medium was added. Live cell fluorescent imaging was performed using a Leica SP8X-SMD confocal microscope with fully enclosed incubation at 37 °C. A 63x oil objective was used and images were captured while the cells were consecutively excited at 490 nm (FITC) 350 nm (Hoechst). ImageJ software (National Insititutes of Health, Bethesda, MD) was employed for data analysis.

human ASBT = target: T2, human ASBT (Homo sapiens, UniProt Q12908); assay: Taurocholate uptake in MDCK-hASBT cells; type: cell-based; conditions: compared with NTCP
T2 construct: expressed in transfected cells; gift of Paul Dawson; induced with sodium butyrate
T2 sequence (Q12908 1-348): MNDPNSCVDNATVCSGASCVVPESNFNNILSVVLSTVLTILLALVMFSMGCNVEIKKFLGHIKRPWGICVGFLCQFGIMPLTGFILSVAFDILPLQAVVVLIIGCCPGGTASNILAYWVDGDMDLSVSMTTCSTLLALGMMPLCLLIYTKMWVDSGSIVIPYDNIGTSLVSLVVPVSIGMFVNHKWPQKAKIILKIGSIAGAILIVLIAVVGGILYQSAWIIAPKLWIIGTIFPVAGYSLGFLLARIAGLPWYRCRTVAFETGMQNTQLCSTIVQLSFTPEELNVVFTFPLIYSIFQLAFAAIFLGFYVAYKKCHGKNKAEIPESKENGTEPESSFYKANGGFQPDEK
Procedure: (§1) U2OS and MDCK cells were grown in Dulbecco’s modified Eagle’s medium (DMEM, Sigma-Aldrich), supplemented with 10% FCS (Gibco), 1% L-glutamine (Lonza), and 1% penicillin/streptomycin (Lonza). […] Transient transfection of U2OS cells with mouse NTCP (mNTCP) was done with PEI reagent (Brunschwig, Basel, Switzerland). Shortly, U2OS cells were seeded one day prior to transfection in 24-well plates. On the day of transfection, 0.5 µg DNA was mixed with 100 µl unsupplemented DMEM and 3 µg/µl PEI. After 10–15 minute incubation at RT, 20 µl of the transfection mix was added to each 24-well. Transfected cells were used in further experiments 48–72 hours later. Cell lines were passaged twice a week at a confluence of 80%, and incubated in a humidified atmosphere of 37 °C + 5% CO2.
(§2) For MDCK or MDCK-hASBT cells 70.000 cells/well were plated in 24-well plates, followed by 24 hours 10 mM sodium butyrate (Sigma-Aldrich) stimulation the next day. Cells were used in the inhibition studies 24 hours (U2OS cell lines) or 48 hours (MDCK cell lines) later. Inhibition studies with mNTCP transiently transfected cells were conducted 48–72 hours after transfection.
(§3) Medium was aspirated from the wells and cells were washed once with 250 µL uptake buffer. Subsequently, cells were pre-incubated with drug in 150 µL uptake buffer for 10 minutes at 37 °C. Taurocholate uptake was initiated by addition of 100 µL uptake buffer containing taurocholate (final concentration 10 µM TC spiked with tritium-labeled TC) and cells were incubated for 2 minutes at 37 °C. Subsequently, cells were washed 4 times with ice-cold PBS and lysed with 0.05% SDS in water. Radioactivity was measured by liquid scintillation counting.

HDV = HDV infection of HepaRG cells (HDAg immunofluorescence); type: cell-based, hepatitis delta virus; conditions: HDAg positive cells, day 5; concentration-dependent
in vitro = conditions: human, U2OS-HA-hNTCP cells
mouse NTCP = target: T3, mouse NTCP (Mus musculus, UniProt O08705); assay: Taurocholate uptake in U2OS cells transiently transfected with mouse NTCP; type: cell-based; conditions: at the calculated IC50 value for hNTCP
T3 construct: expressed in transfected cells; host or cells: U2OS (transient transfection, PEI)
T3 sequence (O08705 1-362): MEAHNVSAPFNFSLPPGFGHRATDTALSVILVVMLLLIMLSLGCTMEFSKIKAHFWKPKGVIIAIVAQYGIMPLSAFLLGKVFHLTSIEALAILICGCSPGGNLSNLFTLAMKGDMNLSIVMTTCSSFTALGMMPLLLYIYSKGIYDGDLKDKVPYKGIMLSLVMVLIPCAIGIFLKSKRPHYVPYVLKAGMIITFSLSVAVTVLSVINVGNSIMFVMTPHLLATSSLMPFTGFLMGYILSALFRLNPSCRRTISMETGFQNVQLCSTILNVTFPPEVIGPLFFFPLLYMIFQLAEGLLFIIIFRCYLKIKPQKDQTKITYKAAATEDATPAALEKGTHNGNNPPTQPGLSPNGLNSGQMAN
Procedure: as §1, §2, §3

human NTCP [6] = target: T1, human NTCP; assay: Taurocholate uptake inhibition studies in U2OS-HA-hNTCP cells; type: cell-based; set-up: HA; expressed in transfected cells; conditions: for concentration at which NTCP was inhibited in repeated measurements of TC-uptake and Myrcludex B binding: both TC uptake and Myrcludex B binding; for Taurocholate uptake into U2OS-HA-hNTCP cells (in words): increasing drug concentrations
Procedure: as §2, §3

human NTCP [7] = target: T1, human NTCP; assay: Screening taurocholate uptake assay (96-well, [14C]taurocholate, 10 µM drug); conditions: for Ranking score: ranking over the functional and the binding screening assay; for B-score functional assay: screening taurocholate uptake, 10 µM drug
[8] = WST-1 cytotoxicity, wildtype U2OS cells; conditions: human
HBV [9] = conditions: for HBV infection in HepaRG cells (in words): HBeAg, HBsAg, HBcAg, concentration-dependent; for number of HBcAg positive stained cells: HepaRG cells, day 10 post HBV infection, 50 µM
U2OS-HA-hNTCP cells = conditions: 2 hours
U2OS cells = assay: WST-1 cytotoxicity, wildtype U2OS cells; conditions: U2OS cells, 2 hours
[10] = U2OS-HA-hNTCP cells, concentrations 1 nM to 10 mM, read-out: IC50 for hNTCP-mediated TC uptake
[11] = HepaRG cells infected with HBV, supernatant day 7 to 10

| Compound | Myrcludex B-FITC fluorescence / binding to U2OS-HA-hNTCP cells (in words) (human NTCP [5]) | ≥50% loss of Myrcludex B binding to hNTCP (concentration) (human NTCP [5]) [µM] | inhibition of ASBT-mediated taurocholate uptake (human ASBT) | HDV infection in HepaRG cells (in words) (HDV) | viability at 2 h, 1 µM (in vitro) [%] | viability at 2 h, 10 µM (in vitro) [%] | viability at 2 h, 100 µM (in vitro) [%] | inhibition of mouse Ntcp-mediated taurocholate uptake compared with human NTCP (mouse NTCP) | concentration at which NTCP was inhibited in repeated measurements of TC-uptake and Myrcludex B binding (human NTCP [6]; U2OS-HA-hNTCP cells) [µM] | IC50 (human NTCP [6]; [10]) [µM] | Taurocholate uptake into U2OS-HA-hNTCP cells (in words) (human NTCP [6]) | Ranking score (human NTCP [7]) | B-score functional assay (human NTCP [7]) | HBV infection in HepaRG cells (in words) (HBV [9]) | concentration effective in reducing HBeAg and HBsAg production (HBV [9]; [11]) [µM] | number of HBcAg positive stained cells (HBV [9]) | other results |
| --- | --- | --- | --- | --- | --- | --- | --- | --- | --- | --- | --- | --- | --- | --- | --- | --- | --- |
| Myrcludex B |  |  |  |  |  |  |  |  |  |  |  |  |  |  |  |  | sodium-dependent uptake of tauro-ursodeoxycholic acid (human NTCP [1]): largely inhibited; also recorded: reduced; HDV RNA and HBV DNA serum levels [2]: Largely reduced; IC50 (HBV [3]; read-out: concentration inhibiting HBV infection, HBeAg): 0.083 nM; IC50 (HBV [3]; read-out: concentration inhibiting HBV infection, HBsAg): 0.669 nM; fold lower concentration for blocking HBV infection than IC50 for bile acid transport (HBV [4]): at least 50 fold |
| COc1cc(C(=O)NS(=O)(=O)c2ccccc2C)ccc1Cc1cn(C)c2ccc(NC(=O)OC3CCCC3)cc12 [Zafirlukast] | reduced Myrcludex B-FITC fluorescence | ≥1 | inhibited ASBT less effectively and at higher concentrations than observed for NTCP; also recorded: inhibit ASBT in a concentration-dependent fashion | reduced HBV/HDV infection; also recorded: reduce | 94.7 ± 12.7 | 87.1 ± 12.3 | 77.7 ± 8 | inhibited similarly as human NTCP | ≤ 10 | 6.5 | reduced | 4.472 | -7.741 | reduced HBV/HDV infection; also recorded: reduce | 17 | severely reduced | decreased Myrcludex B binding (human NTCP [5]; at 10 µM): more than 50%; viability at 1 µM [8]: 87.7 ± 4.8%; viability at 10 µM [8]: 94.1 ± 2.7%; viability at 100 µM [8]: 73 ± 5.8% |
| COc1cc(-c2ccc(N=Nc3ccc4c(S(=O)(=O)[O-])cc(S(=O)(=O)[O-])c(N)c4c3O)c(OC)c2)ccc1N=Nc1ccc2c(S(=O)(=O)[O-])cc(S(=O)(=O)[O-])c(N)c2c1O.[Na+].[Na+].[Na+].[Na+] [Chicago Sky Blue 6B] | reduced | ≥1 | inhibited ASBT to a similar extent as NTCP; also recorded: inhibit ASBT in a concentration-dependent fashion | reduced HBV/HDV infection |  |  |  | more capable of inhibiting mouse Ntcp; also recorded: more potent in inhibiting mouse NTCP | ≤ 10 | 7.1 | reduced | 17.4642 | -3.126 | reduced HBV/HDV infection | 17 | severely reduced | cell viability by WST-1 (U2OS-HA-hNTCP cells; 1 µM): 87.8 ± 7.2%; cell viability by WST-1 (U2OS-HA-hNTCP cells; 10 µM): 95.8 ± 5.9%; cell viability by WST-1 (U2OS-HA-hNTCP cells; 100 µM): 110.9 ± 9.4%; cell viability by WST-1 (U2OS cells; 1 µM): 91.0 ± 9.3%; cell viability by WST-1 (U2OS cells; 10 µM): 93.9 ± 5.4%; cell viability by WST-1 (U2OS cells; 100 µM): 108.7 ± 5.6% |
| CN(CCOc1ccc(CC2SC(=O)NC2=O)cc1)c1ccccn1 (stereo not drawn) [Rosiglitazone] |  |  | inhibited ASBT less effectively and at higher concentrations than observed for NTCP; also recorded: inhibit ASBT in a concentration-dependent fashion | reduced HBV/HDV infection; also recorded: reduce | 111 ± 4.4 | 106 ± 4.5 | 103 ± 6 | more capable of inhibiting mouse Ntcp; also recorded: more potent in inhibiting mouse NTCP |  |  |  |  |  | reduced HBV/HDV infection; also recorded: reduce |  | severely reduced | IC50 (human NTCP [6]): 5.1 µM; viability at 2 h, 1 µM ([8]; wildtype U2OS cells): 104 ± 7.2%; viability at 2 h, 10 µM ([8]; wildtype U2OS cells): 107 ± 3.4%; viability at 2 h, 100 µM ([8]; wildtype U2OS cells): 104 ± 2.5%; concentration effective in reducing HBsAg (HBV [9]; [11]): ≥ 50 µM |
